# In ChEMBL document CHEMBL5344425, “Discovery of 5-(Pyrimidin-2-ylamino)-1H-indole-2-carboxamide Derivatives as Nur77 Modulators with Selective and Potent Activity Against Triple-Negative Breast Cancer” (J Med Chem, 2023):
# Activity calls are given as the source filed them. No cut-off for these calls is given here.
# Experiments:
# [1] = test system: MDA-MB-231; assay: Induction of apoptosis in human MDA-MB-231 cells transfected with Myc-Nur77 assessed as PARP cleavage at 2 to 5 uM measured after 6 hrs by western blot analysis; format: functional, cell-based; details: dose 2-5 µM
# [2] = Toxicity in BALB/c mouse xenografted with human MDA-MB-231 cells assessed as morphological changes in heart at 10 mg/kg, ip qd for 16 days by Hematoxylin-Eosin staining based analysis; format: organism-based; details: in vivo, 384 h, time 16 day
# [3] = Toxicity in BALB/c mouse xenografted with human MDA-MB-231 cells assessed as morphological changes in lung at 10 mg/kg, ip qd for 16 days by Hematoxylin-Eosin staining based analysis; format: organism-based; details: in vivo, 384 h, time 16 day
# [4] = test system: Bel-7402; assay: Antiproliferative activity against human Bel-7402 cells assessed as inhibition of cell growth measured after 24 hrs by MTT assay; format: functional, cell-based; details: Bel-7402, 24 h
# [5] = Toxicity in BALB/c mouse xenografted with human MDA-MB-231 cells assessed as body weight loss at 10 mg/kg, ip qd for 16 days; format: organism-based; details: in vivo, 384 h, time 16 day
# [6] = test system: MDA-MB-231; assay: Induction of apoptosis in human MDA-MB-231 cells assessed as PARP cleavage at 2.5 uM pretreated with caspase inhibitor, Z-VAD-FMK for 4 hrs followed by compound addition and measured after 6 hrs by western blot analysis; format: functional, cell-based
# [7] = biological target: T1, Nuclear receptor subfamily 4immunitygroup A member 1 (Homo sapiens, UniProt P22736); assay: Modulation of Nur77 in human MDA-MB-231 cells assessed as increase in TP53 phosphorylation at Ser37 residue at 0.31 to 5 uM measured after 6 hrs by western blot analysis; format: cell-based; details: filed as modulator, dose 0.31-5 µM
# [8] = Toxicity in BALB/c mouse xenografted with human MDA-MB-231 cells assessed as abnormal behaviour at 10 mg/kg, ip qd for 16 days; format: organism-based; details: in vivo, 384 h, time 16 day
# [9] = biological target: T1, Nuclear receptor subfamily 4immunitygroup A member 1; assay: Antagonist activity at Nur77 ligand binding domain (unknown origin) transfected in HEK293T cells cotransfected with pG5-Luc assessed as inhibition of receptor transcriptional activity at 1 uM measured after 12 hrs by luciferase reporter gene assay; format: cell-based; details: filed as antagonist
# [10] = test system: MDA-MB-231; assay: Induction of apoptosis in human MDA-MB-231 cells assessed as proportion of late apoptotic cells at 5 uM measured after 5 hrs by AnnexinV-FITC/PI staining based flow cytometry (reference value: 2.55%); format: functional
# [11] = test system: MDA-MB-231; assay: Induction of apoptosis in human MDA-MB-231 cells assessed as proportion of early apoptotic cells at 1.25 uM measured after 5 hrs by AnnexinV-FITC/PI staining based flow cytometry (reference value: 3.35%); format: functional
# [12] = test system: MDA-MB-231; assay: Induction of apoptosis in human MDA-MB-231 cells transfected with Myc-Nur77 R184A mutant assessed as PARP cleavage at 2 to 5 uM measured after 6 hrs by western blot analysis; format: functional, cell-based; details: dose 2-5 µM
# [13] = test system: MDA-MB-231; assay: Induction of apoptosis in human MDA-MB-231 cells transfected with Myc-cmv assessed as PARP cleavage at 2 to 5 uM measured after 6 hrs by western blot analysis; format: functional, cell-based; details: dose 2-5 µM
# [14] = Toxicity in Zebra fish AB embryo assessed as induction of morphological abnormalities at 1.25 uM measured after 24 to 72 hrs; parameters: species or system Danio rerio; details: zebrafish, time 24-72 hrs
# [15] = test system: MDA-MB-231; assay: Induction of apoptosis in human MDA-MB-231 cells transfected with Nur77 siRNA assessed as loss of mitochondrial membrane potential at 2 uM measured after 6 hrs by JC-1 staining based flow cytometry (reference value: 6.1%); format: functional
# [16] = biological target: T1, Nuclear receptor subfamily 4immunitygroup A member 1; assay: Antagonist activity at Nur77 ligand binding domain (unknown origin) transfected in HEK293T cells cotransfected with pG5-Luc assessed as inhibition of receptor transcriptional activity measured after 12 hrs by luciferase reporter gene assay; format: cell-based; details: filed as antagonist, dose 0.5-2 µM
# [17] = test system: MDA-MB-231; assay: Induction of apoptosis in human MDA-MB-231 cells transfected with ctr siRNA assessed as late apoptotic cells at 1 uM measured after 6 hrs by AnnexinV-FITC/PI staining based flow cytometry (reference value: 3.97%); format: functional
# [18] = test system: T47D; assay: Antiproliferative activity against human T47D cells transfected with Nur77 siRNA assessed as inhibition of cell growth measured after 24 hrs by MTT assay; format: functional, cell-based
# [19] = test system: MDA-MB-231; assay: Antitumor activity against human MDA-MB-231 cells xenografted in BALB/c mouse assessed as decrease in Ki67 expression in tumor at 10 mg/kg, ip qd for 16 days by immunohistochemical staining based analysis; format: functional, organism-based; details: time 16.0 day
# [20] = test system: MDA-MB-231; assay: Antitumor activity against human MDA-MB-231 cells xenografted in BALB/c mouse assessed as tumor weight at 10 mg/kg, ip qd for 16 days (reference value: 1.17 gms); format: functional; details: time 16 day
# [21] = test system: HCT-116; assay: Antiproliferative activity against human HCT-116 cells assessed as inhibition of cell growth measured after 24 hrs by MTT assay; format: functional, cell-based; details: HCT-116, 24 h
# [22] = biological target: T1, Nuclear receptor subfamily 4immunitygroup A member 1; assay: Binding affinity to His-tagged Nur77 ligand binding domain (unknown origin) by surface plasmon resonance assay
# [23] = Toxicity in BALB/c mouse xenografted with human MDA-MB-231 cells assessed as morphological changes in liver at 10 mg/kg, ip qd for 16 days by Hematoxylin-Eosin staining based analysis; format: organism-based; details: in vivo, 384 h, time 16 day
# [24] = Toxicity in BALB/c mouse xenografted with human MDA-MB-231 cells assessed as morphological changes in spleen at 10 mg/kg, ip qd for 16 days by Hematoxylin-Eosin staining based analysis; format: organism-based; details: in vivo, 384 h, time 16 day
# [25] = biological target: T1, Nuclear receptor subfamily 4immunitygroup A member 1; assay: Induction of degradation of Myc-tagged Nur77 (unknown origin) transfected in human MDA-MB-231 cells at 2 to 5 uM measured after 6 hrs by western blot analysis; format: cell-based; details: dose 2-5 µM
# [26] = test system: MDA-MB-231; assay: Induction of apoptosis in human MDA-MB-231 cells transfected with Nur77 siRNA assessed as loss of mitochondrial membrane potential at 1 uM measured after 6 hrs by JC-1 staining based flow cytometry (reference value: 6.1%); format: functional
# [27] = test system: MDA-MB-231; assay: Induction of apoptosis in human MDA-MB-231 cells transfected with Nur77 siRNA assessed as PARP cleavage at 0.5 to 2 uM measured after 6 hrs by western blot analysis; format: functional, cell-based; details: dose 0.5-2 µM
# [28] = Toxicity in BALB/c mouse xenografted with human MDA-MB-231 cells assessed as morphological changes in kidney at 10 mg/kg, ip qd for 16 days by Hematoxylin-Eosin staining based analysis; format: organism-based; details: in vivo, 384 h, time 16 day
# [29] = biological target: T1, Nuclear receptor subfamily 4immunitygroup A member 1; assay: Modulation of Nur77 in human MDA-MB-231 cells assessed as increase in TP53 phosphorylation at Ser15 residue at 0.31 to 5 uM measured after 6 hrs by western blot analysis; format: cell-based; details: filed as modulator, dose 0.31-5 µM
# [30] = test system: MDA-MB-231; assay: Induction of apoptosis in human MDA-MB-231 cells transfected with Nur77 siRNA assessed as late apoptotic cells at 1 uM measured after 6 hrs by AnnexinV-FITC/PI staining based flow cytometry (reference value: 3.97%); format: functional
# [31] = test system: MDA-MB-231; assay: Antitumor activity against human MDA-MB-231 cells xenografted in BALB/c mouse assessed as inhibition of tumor growth at 10 mg/kg, ip qd for 16 days; format: functional; details: MDA-MB-231, 384 h, time 16 day, read-out: TGI
# [32] = test system: MCF7; assay: Antiproliferative activity against human MCF7 cells assessed as inhibition of cell growth measured after 24 hrs by MTT assay; format: functional, cell-based; details: MCF7, 24 h
# T1 sequence (P22736 whole entry): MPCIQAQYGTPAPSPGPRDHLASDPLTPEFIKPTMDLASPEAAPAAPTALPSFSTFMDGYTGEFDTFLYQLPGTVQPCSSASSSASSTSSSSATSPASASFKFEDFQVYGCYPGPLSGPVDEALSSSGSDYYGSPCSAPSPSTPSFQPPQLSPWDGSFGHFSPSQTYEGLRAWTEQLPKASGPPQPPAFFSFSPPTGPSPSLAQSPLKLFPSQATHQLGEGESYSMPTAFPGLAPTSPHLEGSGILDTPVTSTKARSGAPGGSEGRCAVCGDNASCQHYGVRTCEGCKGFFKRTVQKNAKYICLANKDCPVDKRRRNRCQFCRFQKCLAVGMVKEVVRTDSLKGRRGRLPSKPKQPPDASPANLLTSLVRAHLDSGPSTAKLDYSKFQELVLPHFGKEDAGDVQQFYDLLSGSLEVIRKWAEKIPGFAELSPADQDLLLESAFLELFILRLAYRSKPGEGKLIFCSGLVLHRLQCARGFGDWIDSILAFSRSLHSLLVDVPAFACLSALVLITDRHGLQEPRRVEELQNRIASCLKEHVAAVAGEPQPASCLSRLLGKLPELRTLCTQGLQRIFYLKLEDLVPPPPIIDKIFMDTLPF
smiles,measurement,setting,value
CCN(CC)CCCNC(=O)c1cc2cc(Nc3nccc(-c4sc(NC)nc4C)n3)ccc2[nH]1,Activity,[1],Active
same,Activity,[2],Non-Toxic
same,Activity,[3],Non-Toxic
same,IC50,[4],38.3 µM
same,Activity,[5],Non-Toxic
same,Activity,[6],inactive
same,Activity,[7],Active
same,Activity,[8],Non-Toxic
same,inhibition,[9],Active
same,Activity,[10],21.84%
same,Activity,[11],35.95%
same,Activity,[12],inactive
same,Activity,[13],Active
same,Activity,[14],Toxic
same,Activity,[15],15.41%
same,inhibition,[16],Dose-Dependent Effect
same,Activity,[17],8.23%
same,IC50,[18],6.34 µM
same,Activity,[19],Active
same,Activity,[20],0.06 g
same,IC50,[21],9.84 µM
same,Kd,[22],0.091 µM
same,Activity,[23],Non-Toxic
same,Activity,[24],Non-Toxic
same,Activity,[25],Active
same,Activity,[26],8.57%
same,Activity,[27],inactive
same,Activity,[28],Non-Toxic
same,Activity,[29],Active
same,Activity,[30],2.24%
same,inhibition in vivo at 10 mg/kg,[31],100%
same,IC50,[32],0.72 µM
